In patent US5037830A, “Novel thiouracyl derivatives, pharmaceutical compositions containing them and process for preparing same” (Richter Gedeon Vegyeszeti Gyar RT, priority 1989, dated 1991):
Where two headings read alike, the source gives them in different places.

Key:
[1] = test system: spontaneous gastric acid secretion; experiment: Gastric acid secretion-inhibiting effect according to Shay's method; assay type: in vivo, female OFA rats; conditions: for Gastric acid, change / Gastric juice, change: vs control; for Gastric acid, treated: titration with 0.1N NaOH; for inhibitor effect on gastric acid secretion, in words: compared with reference drugs; for ED50: po, gastric acid, Shay rat
Description: After being starved for 24 hours, female OFA rats weighing 130 to 160 g were orally treated with the compounds to be tested. (15 animals were used for each dose.) One hour later laparotomy and pylorus ligature were carried out under ether anaesthesia according to Shay [Gastroenterology 5, 43 (1945)]. After 5 hours the animals were killed by an overdose of ether, their stomaches were excised and the volume and acid content of the gastric juice were determined. The acid was measured by titration with 0.1N NaOH, by using Topfer's indicator.

[2] = test system: necrosis induced by ethanol containing hydrochloric acid; experiment: Cytoprotective effect (modified Robert's test); assay type: in vivo; conditions: for Bleedings, change: vs control; for ED50: po, cytoprotection
Description: The modified Robert's test [Gastroenterology 17, 761 (1979)] was used. The necrotizing agent (100 ml of abs. ethanol containing 2 ml of concentrated hydrochloric acid) was orally administered in a volume of 0.5 ml/100 g by 30 minutes after giving the compound to be tested. (12 animals were used for each dose.) After 1 hour the animals were killed by ether and the bleedings on the glandular part of their stomach were evaluated.

[3] = test system: gastric ulcer after pylorus ligature; experiment: Gastric ulcer-inhibiting effect in rats operated according to Shay's method; assay type: in vivo, female OFA rats; conditions: Rattus norvegicus, po, 18 h, p.o.
Description: Female OFA rats starved for 24 hours weighing 150 to 160 g were used. (The animals were allowed to drink water ad libitum). The animals were orally treated with the substance to be tested and after 1 hour laparotomy and pylorus ligature according to Shay [Gastroenterology 5, 43 (1945)] were performed under ether anaesthesia. After 18 hours the number and size of ulcers formed on the membranaceous part of the stomach were examined under microscope. The evaluation was made in relation to the control group and the ED50 values were determined. The sizes of the ulcers were expressed as score values from 0.5 to 32.

[4] = test system: reserpine-induced gastric ulcer; experiment: Inhibition of the reserpine-induced gastric ulcer; assay type: in vivo, female OFA rats; conditions: Rattus norvegicus, po, 18 h, p.o., reserpine 5 mg/kg s.c.
Description: After being starved for 24 hours, female OFA rats were orally treated with the compounds to be tested and then subcutaneously (s.c.) with 5 mg/kg of reserpine after 1 hour. After 18 hours the animals were killed and their stomach were examined under microscope. The evaluation was performed as described under the preceding paragraph 1.

[5] = read-out: ED50 related to the number of ulcers
[6] = read-out: ED50 related to the occurrance of ulcers
[7] = read-out: ED50 related to the severity of ulcers

Row | Structure (SMILES) | Gastric juice, treated ([1]; 5 mg/kg p.o.) | Gastric acid, change ([1]; 5 mg/kg p.o.) | Gastric juice, change ([1]; 5 mg/kg p.o.) | Gastric acid, treated ([1]; 5 mg/kg p.o.) | Gastric juice, treated ([1]; 10 mg/kg p.o.) | Gastric acid, change ([1]; 10 mg/kg p.o.) | Gastric juice, change ([1]; 10 mg/kg p.o.) | Gastric acid, treated ([1]; 10 mg/kg p.o.) | Gastric juice, treated ([1]; 20 mg/kg p.o.) | Gastric acid, change ([1]; 20 mg/kg p.o.) | Gastric juice, change ([1]; 20 mg/kg p.o.) | Gastric acid, treated ([1]; 20 mg/kg p.o.) | Gastric juice, treated ([1]; 40 mg/kg p.o.) | Gastric acid, change ([1]; 40 mg/kg p.o.) | Gastric juice, change ([1]; 40 mg/kg p.o.) | Gastric acid, treated ([1]; 40 mg/kg p.o.) | inhibitor effect on gastric acid secretion, in words [1] | ED50 [1] | Bleedings, treated ([2]; 5 mg/kg p.o.) | Bleedings, change ([2]; 5 mg/kg p.o.) | other results
1 | CN(C)c1ccccc1CSc1nc(-c2ccccc2)cc(=O)[nH]1 [Example 5, 2-(2-dimethylamino-benzyl)thio-6-phenyl-4(3H)-pyrimidinone] | 5.77 mL | -24.9% | -17.3% | 2.11 mL | 5.51 mL | -62.0% | -19.6% | 2.06 mL | 4.33 mL | -86.3% | -37.1% | 0.37 mL | 6.80 mL | -94.5% | +6.8% | 0.18 mL | more active then either of both reference drugs | 8.1 mg/kg | 73.5 mm | -26.3% | Bleedings, treated ([2]; 10 mg/kg p.o.): 47.6 mm; Bleedings, change ([2]; 10 mg/kg p.o.): -52.3%; Bleedings, treated ([2]; 20 mg/kg p.o.): 24.3 mm; Bleedings, change ([2]; 20 mg/kg p.o.): -81.7%; ED50 [2]: 9.9 mg/kg
2 | CCN(C)c1ccccc1CSc1nc(C)cc(=O)[nH]1 [Example 10] | – | – | – | – | 5.23 mL | -32.5% | -13.7% | 1.89 mL | 5.23 mL | -60.3% | -18.0% | 1.23 mL | 5.39 mL | -87.3% | -24.8% | 0.45 mL | equiactive to the NC-1300 reference drug | 15.5 mg/kg | – | – | –
3 | COc1ccc2[nH]c([S+]([O-])Cc3ncc(C)c(OC)c3C)nc2c1 (centres unmarked) [Omeprazole, 2-[[(3,5-dimethyl-4-methoxypyridin-2-il)-methyl]-sulfinyl]-5-methoxy-1H-benzimidazole, reference compound] | 5.40 mL | -35.4% | -21.5% | 1.75 mL | 5.47 mL | -37.3% | -20.5% | 1.70 mL | 4.30 mL | -74.7% | -38.4% | 0.71 mL | – | – | – | – | – | 10.5 mg/kg | 61.8 mm | -27.1% | Bleedings, treated ([2]; 10 mg/kg p.o.): 46.0 mm; Bleedings, change ([2]; 10 mg/kg p.o.): -45.8%; Bleedings, treated ([2]; 20 mg/kg p.o.): 14.2 mm; Bleedings, change ([2]; 20 mg/kg p.o.): -83.8%; ED50 [2]: 10 mg/kg; ED50 [3, 5]: 9.2 mg/kg; ED50 [3, 6]: 17 mg/kg; ED50 [3, 7]: 11 mg/kg; ED50 [4, 5]: 17 mg/kg; ED50 [4, 6]: 24 mg/kg; ED50 [4, 7]: 20 mg/kg
